Source: patent US20180244611A1, “Modulators of the Cystic Fibrosis Transmembrane Conductance Regulator Protein and Methods of Use” (AbbVie S.à.r.l., priority 2017, published 2018)

What was measured:
F508delCFTR [1] = target: T1, F508delCFTR (Homo sapiens, UniProt P13569, DEL508-508); experiment: Cell Surface Expression-Horse Radish Peroxidase (CSE-HRP) assay, test compound with co-corrector; type: cell-based; conditions: with 2 μM co-corrector; for Maximum % activity (with co-corrector): maximum at any tested concentration, normalized to positive control;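 on Maximum % activity (with co-corrector): percent of 2 µM positive control corrector over DMSO; co-corrector is that same compound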
T1 construct: expressed in transfected cells; host or cells: CFBE41o- human lung-derived epithelial cells (CFBE41o-F508delCFTR-HRP), doxycycline-inducible
T1 sequence (P13569 with tags, fused parts or gaps DEL508-508): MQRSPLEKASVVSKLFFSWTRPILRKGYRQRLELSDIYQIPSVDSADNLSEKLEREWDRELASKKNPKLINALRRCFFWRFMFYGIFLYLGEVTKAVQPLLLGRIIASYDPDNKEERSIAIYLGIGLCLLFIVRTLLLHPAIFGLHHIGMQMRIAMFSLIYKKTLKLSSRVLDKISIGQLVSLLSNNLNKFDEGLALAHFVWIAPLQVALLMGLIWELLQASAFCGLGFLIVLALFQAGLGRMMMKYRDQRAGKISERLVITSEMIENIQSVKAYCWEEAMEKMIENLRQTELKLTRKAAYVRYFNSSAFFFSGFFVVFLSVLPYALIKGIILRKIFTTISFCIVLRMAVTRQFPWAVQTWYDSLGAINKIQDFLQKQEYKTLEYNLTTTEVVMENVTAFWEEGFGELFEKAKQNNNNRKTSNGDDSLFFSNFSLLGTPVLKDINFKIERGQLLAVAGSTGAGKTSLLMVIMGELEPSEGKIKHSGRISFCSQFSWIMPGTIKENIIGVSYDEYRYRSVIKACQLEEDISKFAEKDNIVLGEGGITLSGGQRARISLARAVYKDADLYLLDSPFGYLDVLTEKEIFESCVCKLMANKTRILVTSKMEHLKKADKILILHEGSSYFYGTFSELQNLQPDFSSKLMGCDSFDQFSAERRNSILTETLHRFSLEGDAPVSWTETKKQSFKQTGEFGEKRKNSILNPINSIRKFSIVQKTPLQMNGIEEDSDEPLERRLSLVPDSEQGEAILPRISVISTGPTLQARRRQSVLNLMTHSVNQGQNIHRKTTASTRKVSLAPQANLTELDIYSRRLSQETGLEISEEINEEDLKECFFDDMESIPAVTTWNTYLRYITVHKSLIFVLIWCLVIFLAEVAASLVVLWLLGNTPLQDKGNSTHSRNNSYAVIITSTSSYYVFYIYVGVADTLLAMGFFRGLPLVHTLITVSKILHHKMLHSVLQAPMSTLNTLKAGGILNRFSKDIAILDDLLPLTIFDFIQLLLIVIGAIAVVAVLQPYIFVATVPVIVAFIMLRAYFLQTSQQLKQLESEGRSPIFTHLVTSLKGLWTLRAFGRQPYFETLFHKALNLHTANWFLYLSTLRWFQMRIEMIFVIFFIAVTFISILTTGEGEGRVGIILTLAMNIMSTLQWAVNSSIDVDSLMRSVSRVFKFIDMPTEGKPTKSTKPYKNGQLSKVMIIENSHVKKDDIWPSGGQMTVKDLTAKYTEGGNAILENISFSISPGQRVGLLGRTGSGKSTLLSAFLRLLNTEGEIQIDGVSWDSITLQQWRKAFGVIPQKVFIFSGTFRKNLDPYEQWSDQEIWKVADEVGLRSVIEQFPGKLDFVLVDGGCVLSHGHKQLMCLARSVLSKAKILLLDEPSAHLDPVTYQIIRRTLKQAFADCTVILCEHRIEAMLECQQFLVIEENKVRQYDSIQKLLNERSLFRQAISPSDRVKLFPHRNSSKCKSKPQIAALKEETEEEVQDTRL
Description: (§1) Cell Surface Expression-Horse Radish Peroxidase (CSE-HRP) Assay
(§2) A cellular assay for measuring the F508delCFTR cell surface expression after correction with test compounds either without or with a co-corrector (2 μM of 3-[(2R,4R)-4-({[1-(2,2-difluoro-1,3-benzodioxol-5-yl)cyclopropyl]carbonyl}amino)-7-methoxy-3,4-dihydro-2H-chromen-2-yl]benzoic acid), was developed in human lung derived epithelial cell line (CFBE41o-) (Veit G et al, (2012) Mol Biol Cell. 23(21): 4188-4202). The development was achieved by expressing the F508delCFTR mutation along with a horseradish peroxidase (HRP) in the fourth exofacial loop, and then measuring the HRP activity using luminescence readout from these cells, CFBE41o-F508delCFTR-HRP, that were incubated overnight with the test corrector compounds, either without or with the co-corrector. For this primary assay, the CFBE41o-F508delCFTR-HRP cells were plated in 384-well plates (Greiner Bio-one; Cat 781080) at 4,000 cells/well along with 0.5 μg/mL doxycycline to induce the F508delCFTR-HRP expression and further incubated at 37° C., 5% CO2 for 72 hours. The test compounds were then added either without or with a co-corrector at the required concentrations and further incubated for 18-24 hours at 33° C. The highest concentration tested was 20 μM with an 8-point concentration response curve using a 3-fold dilution in both the test compound without or with the co-corrector. Three replicate plates were run to determine one EC50. All plates contained negative controls (dimethyl sulfoxide, DMSO) and positive control (2 μM of 3-[(2R,4R)-4-({[1-(2,2-difluoro-1,3-benzodioxol-5-yl)cyclopropyl]carbonyl}amino)-7-methoxy-3,4-dihydro-2H-chromen-2-yl]benzoic acid) as well as on-plate concentration response of the positive control. Post incubation, the plates were washed 5× times with Dulbecco's phosphate buffered saline (DPBS), followed by the addition of the HRP substrate, luminol (50 μL), and measuring the HRP activity using luminescence readout on EnVision® Multilabel Plate Reader (Perkin Elmer; product number 2104-0010). The raw counts from the experiment were analyzed using Accelrys® Assay Explorer v3.3.
(§3) Z′ greater than 0.5 was used as passing quality control criteria for the plates.
(§4) 1−[3*SDPositive Control+3*SDNegative Control/Absolute (MeanPositive Control−MeanNegative Control)]
(§5) wherein “SD” is standard deviation.
(§6) The % activity measured at each of the 8 test concentrations of the test compound added either without or with a co-corrector (2 μM of 3-[(2R,4R)-4-({[1-(2,2-difluoro-1,3-benzodioxol-5-yl)cyclopropyl]carbonyl}amino)-7-methoxy-3,4-dihydro-2H-chromen-2-yl]benzoic acid) was normalized to the on-plate positive control using the following formulae:
activity (Test compound with co-corrector)=[(test compound with co-corrector response−DMSO response)/(positive control response−DMSO response)]*100
(§7) The maximum % activity achieved for the test compound either without or with a co-corrector at any tested concentration is presented in Table 1 along with the respective EC50's calculated using the following general sigmoidal curve with variable Hill slope equation (described as Model 42 in the Accelrys® Assay Explorer v3.3 software):
(§8) General sigmoidal curve with concentration, response, top, bottom, EC50 and Hill slope. This model describes a sigmoidal curve with an adjustable baseline, a. The equation can be used to fit curves where response is either increasing or decreasing with respect to the independent variable, “x”.
“x” is a concentration of drug under test. “y” is the response. “a” is the maximum response, and “d” is the minimum response “c” is the inflection point (EC50) for the curve. That is, “y” is halfway between the lower and upper asymptotes when x=c. “b” is the slope-factor or Hill coefficient. The sign of b is positive when the response increases with increasing dose and is negative when the response decreases with increasing dose (inhibition).

F508delCFTR [2] = target: T1, F508delCFTR; experiment: Cell Surface Expression-Horse Radish Peroxidase (CSE-HRP) assay, test compound without co-corrector; type: cell-based; conditions: for Emax: maximum at any tested concentration, normalized to positive control, without co-corrector; for EC50: test compound without co-corrector;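 on Emax: percent of on-plate 2 µM positive control corrector response over DMSO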
Description: as §1, §2, §3, §4, §5, §6
% activity (Test compound without co-corrector)=[(test compound without co-corrector response−DMSO response)/(positive control response−DMSO response)]*100%
as §7, §8
“x” is a concentration of drug under test. “y” is the response. “a” is the maximum response, and “d” is the minimum response “c” is the inflection point (EC50) for the curve. That is, “y” is halfway between the lower and upper asymptotes when x=c. “b” is the slope-factor or Hill coefficient. The sign of b is positive when the response increases with increasing dose and is negative when the response decreases with increasing dose (inhibition). The data is presented with the qualifiers shown below: […]

Maximum % activity (with co-corrector) (F508delCFTR [1]) | EC50 (F508delCFTR [1]) [µM] | Emax (F508delCFTR [2]) [%] | EC50 (F508delCFTR [2]) [µM] | SMILES
+++ (≥350) | < 3 | 50 to 150 | < 3 | CCC1(C(=O)NS(=O)(=O)c2cccc3cccc(O)c23)CCc2c(Cl)cccc21 (stereo not shown) [Example I-31, 4-chloro-1-ethyl-N-(8-hydroxynaphthalene-1-sulfonyl)-2,3-dihydro-1H-indene-1-carboxamide]
+++ (≥350) | < 3 | ≥ 150 | < 3 | CCOc1ccc(Br)c2c1CCCC2C(=O)NS(=O)(=O)c1cccc2ccccc12 (stereo not shown) [Example I-32, 8-bromo-5-ethoxy-N-(naphthalene-1-sulfonyl)-1,2,3,4-tetrahydronaphthalene-1-carboxamide]
+++ (≥350) | < 3 | ≥ 150 | < 3 | COc1ccc(C2CCC2)c2c1CCCC2C(=O)NS(=O)(=O)c1cccc2ccccc12 (stereo not shown) [Example I-33, 8-cyclobutyl-5-methoxy-N-(naphthalene-1-sulfonyl)-1,2,3,4-tetrahydronaphthalene-1-carboxamide]
+++ (≥350) | < 3 | ≥ 150 | < 3 | CCC1(C(=O)NS(=O)(=O)c2cccc3ccccc23)CCCc2cccc(Cl)c21 (stereo not shown) [Example I-34, 8-chloro-1-ethyl-N-(naphthalene-1-sulfonyl)-1,2,3,4-tetrahydronaphthalene-1-carboxamide]
+++ (≥350) | < 3 | ≥ 150 | < 3 | O=C(NS(=O)(=O)c1cccc2ccccc12)C1(Cc2cccc(C(F)(F)F)n2)CCc2c(Cl)cccc21 (stereo not shown) [Example I-35, 4-chloro-N-(naphthalene-1-sulfonyl)-1-{[6-(trifluoromethyl)pyridin-2-yl]methyl}-2,3-dihydro-1H-indene-1-carboxamide]
+++ (≥350) | < 3 | 50 to 150 | 3 to 10 | O=C(NS(=O)(=O)c1cccc2ccccc12)C1(Cc2ccc(Cl)nc2)CCc2c(Cl)cccc21 (stereo not shown) [Example I-36, 4-chloro-1-[(6-chloropyridin-3-yl)methyl]-N-(naphthalene-1-sulfonyl)-2,3-dihydro-1H-indene-1-carboxamide]
+++ (≥350) | 3 to 10 | 50 to 150 | 3 to 10 | COc1cccc(CC2(C(=O)NS(=O)(=O)c3cccc4ccccc34)CCc3c(Cl)cccc32)n1 (stereo not shown) [Example I-37, 4-chloro-1-[(6-methoxypyridin-2-yl)methyl]-N-(naphthalene-1-sulfonyl)-2,3-dihydro-1H-indene-1-carboxamide]
+++ (≥350) | < 3 | ≥ 150 | 3 to 10 | CC1(C(=O)NS(=O)(=O)c2cccc3ccccc23)CCc2c(Cl)cccc21 (stereo not shown) [Example I-38, 4-chloro-1-methyl-N-(naphthalene-1-sulfonyl)-2,3-dihydro-1H-indene-1-carboxamide]
+++ (≥350) | < 3 | 50 to 150 | < 3 | CCC1(C(=O)NS(=O)(=O)c2cccc3c(Cl)cccc23)CCc2c(Cl)cccc21 (stereo not shown) [Example I-39, 4-chloro-N-(5-chloronaphthalene-1-sulfonyl)-1-ethyl-2,3-dihydro-1H-indene-1-carboxamide]
+++ (≥350) | < 3 | ≥ 150 | < 3 | CC(C)Oc1ccc(Br)c2c1CCCC2C(=O)NS(=O)(=O)c1cccc2ccccc12 (stereo not shown) [Example I-40, 8-bromo-N-(naphthalene-1-sulfonyl)-5-[(propan-2-yl)oxy]-1,2,3,4-tetrahydronaphthalene-1-carboxamide]
+++ (≥350) | < 3 | ≥ 150 | < 3 | COc1ccc(Br)c2c1C(C(=O)NS(=O)(=O)c1cccc3ccccc13)CCC2 (stereo not shown) [Example I-41, 5-bromo-8-methoxy-N-(naphthalene-1-sulfonyl)-1,2,3,4-tetrahydronaphthalene-1-carboxamide]
+++ (≥350) | < 3 | ≥ 150 | < 3 | CCC1(C(=O)NS(=O)(=O)c2cccc3ncccc23)CCc2c(Cl)cccc21 (stereo not shown) [Example I-42, 4-chloro-1-ethyl-N-(quinoline-5-sulfonyl)-2,3-dihydro-1H-indene-1-carboxamide]
+++ (≥350) | < 3 | 50 to 150 | < 3 | CCC1(C(=O)NS(=O)(=O)c2cccc3sccc23)CCc2c(Cl)cccc21 (stereo not shown) [Example I-43, N-(1-benzothiophene-4-sulfonyl)-4-chloro-1-ethyl-2,3-dihydro-1H-indene-1-carboxamide]
+++ (≥350) | < 3 | ≥ 150 | < 3 | COc1ccc(Br)c2c1C(C(=O)NS(=O)(=O)c1cccc3ncccc13)CC2 (stereo not shown) [Example I-44, 4-bromo-7-methoxy-N-(quinoline-5-sulfonyl)-2,3-dihydro-1H-indene-1-carboxamide]
+++ (≥350) | < 3 | ≥ 150 | < 3 | COCCOc1ccc(Br)c2c1CCCC2C(=O)NS(=O)(=O)c1cccc2ccccc12 (stereo not shown) [Example I-45, 8-bromo-5-(2-methoxyethoxy)-N-(naphthalene-1-sulfonyl)-1,2,3,4-tetrahydronaphthalene-1-carboxamide]
+++ (≥350) | < 3 | ≥ 150 | 3 to 10 | COc1ccc(Br)c2c1[C@@H](C(=O)NS(=O)(=O)c1cccc3ncccc13)CC2 [Example I-46, (1S)-4-bromo-7-methoxy-N-(quinoline-5-sulfonyl)-2,3-dihydro-1H-indene-1-carboxamide]
+++ (≥350) | < 3 | ≥ 150 | < 3 | COc1ccc(Br)c2c1[C@H](C(=O)NS(=O)(=O)c1cccc3ncccc13)CC2 [Example I-47, (1R)-4-bromo-7-methoxy-N-(quinoline-5-sulfonyl)-2,3-dihydro-1H-indene-1-carboxamide]
+++ (≥350) | < 3 | ≥ 150 | 3 to 10 | COc1ccc(Br)c2c1CCC[C@@H]2C(=O)NS(=O)(=O)c1cccc2ccccc12 [Example I-48, (1S)-8-bromo-5-methoxy-N-(naphthalene-1-sulfonyl)-1,2,3,4-tetrahydronaphthalene-1-carboxamide]
+++ (≥350) | < 3 | ≥ 150 | < 3 | COc1ccc(Br)c2c1CCC[C@H]2C(=O)NS(=O)(=O)c1cccc2ccccc12 [Example I-49, (1R)-8-bromo-5-methoxy-N-(naphthalene-1-sulfonyl)-1,2,3,4-tetrahydronaphthalene-1-carboxamide]
